Source: patent US6022879A, “Bathocuproine treatment of neurologic disease” (priority 1998, dated 2000)
Each block holds one compound with its values, some of them ahead of it.

Assays:
[1] = molecular target: T1, human Cu,Zn superoxide dismutase (SOD), FALS mutant A4V (Homo sapiens, UniProt P00441, A5V); test: Reduction of enzyme-bound copper of SOD by a reductant, monitored spectrally at 680 nm; type: biochemical; settings: Kpi pH 7.4, 37 degrees C
T1 construct: made in house; host or cells: E. coli BL21(DE3) plysS, pET-3d
T1 sequence (P00441 whole entry A5V): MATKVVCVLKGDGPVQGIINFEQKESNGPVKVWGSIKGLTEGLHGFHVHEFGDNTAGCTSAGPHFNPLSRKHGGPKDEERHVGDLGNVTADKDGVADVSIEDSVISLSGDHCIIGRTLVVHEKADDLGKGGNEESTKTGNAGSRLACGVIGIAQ
Experimental: (§1) SODs were present at a subunit concentration of 0.43 mM in 0.5 ml of 0.1 mM Kpi, pH 7.4 at 37 degrees C. Ascorbate (0.5 mM) was added at time zero and reduction was monitored spectrally at 680 nm for 1 hr.
(§2) SODs were present at a subunit concentration of 0.43 mM in 0.5 ml of 0.1 mM Kpi, pH 7.4 at 37 degrees C. H2 O2 (0.4 mM) was added at time zero and reduction was monitored spectrally at 680 nm for 5 minutes.
(§3) For more than two years the notion that FALS SODs could act as peroxidases and generate hydroxyl radical has been a subject of debate. However, H2 O2 can rapidly reduce Cu,Zn SOD and generate superoxide as a byproduct. (It is the addition of a second molecule of H2 O2 to give --OH that is extremely slow and of questionable significance). […] For example, it is possible to assess superoxide production from reduced SOD using the tetranitromethane (TNM) capture assay described by Hodgson and Fridovich (7).

[2] = molecular target: T2, human Cu,Zn superoxide dismutase (SOD), FALS mutant D90A (Homo sapiens, UniProt P00441, D91A); test: as above; type: biochemical; settings: Kpi pH 7.4, 37 degrees C
T2 construct: made in house; host or cells: E. coli BL21(DE3) plysS, pET-3d
T2 sequence (P00441 whole entry D91A): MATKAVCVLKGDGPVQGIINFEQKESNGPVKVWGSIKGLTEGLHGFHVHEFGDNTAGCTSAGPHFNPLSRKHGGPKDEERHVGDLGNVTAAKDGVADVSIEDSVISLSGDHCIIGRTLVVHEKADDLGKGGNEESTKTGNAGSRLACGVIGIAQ
Experimental: as §1, §2, §3

[3] = molecular target: T3, human Cu,Zn superoxide dismutase (SOD), FALS mutant G93A (Homo sapiens, UniProt P00441, G94A); test: as above; type: biochemical; settings: Kpi pH 7.4, 37 degrees C
T3 construct: made in house; host or cells: E. coli BL21(DE3) plysS, pET-3d
T3 sequence (P00441 whole entry G94A): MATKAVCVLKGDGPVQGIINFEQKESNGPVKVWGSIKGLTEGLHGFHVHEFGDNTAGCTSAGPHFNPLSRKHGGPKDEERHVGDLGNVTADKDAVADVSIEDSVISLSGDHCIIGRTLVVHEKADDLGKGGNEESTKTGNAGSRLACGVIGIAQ
Experimental: as §1, §2, §3

[4] = molecular target: T4, human Cu,Zn superoxide dismutase (SOD), wild type (Homo sapiens, UniProt P00441); test: as above; type: biochemical; settings: Kpi pH 7.4, 37 degrees C
T4 construct: made in house; host or cells: E. coli
T4 sequence (P00441 whole entry): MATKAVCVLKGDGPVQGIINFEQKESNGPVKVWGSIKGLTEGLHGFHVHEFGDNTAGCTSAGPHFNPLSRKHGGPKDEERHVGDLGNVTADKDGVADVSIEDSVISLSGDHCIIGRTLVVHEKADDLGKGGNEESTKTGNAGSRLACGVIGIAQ
Experimental: as §1, §2, §3

[5] = molecular target: T5, human Cu,Zn superoxide dismutase (SOD), site-directed mutant D124N (Asp124 to Asn, model zinc-deficient SOD) (Homo sapiens, UniProt P00441, D125N); test: Reduction of enzyme-bound copper of SOD by a reductant, monitored spectrally at 680 nm (stopped-flow for ascorbate); type: biochemical
T5 construct: made in house; host or cells: E. coli
T5 sequence (P00441 whole entry D125N): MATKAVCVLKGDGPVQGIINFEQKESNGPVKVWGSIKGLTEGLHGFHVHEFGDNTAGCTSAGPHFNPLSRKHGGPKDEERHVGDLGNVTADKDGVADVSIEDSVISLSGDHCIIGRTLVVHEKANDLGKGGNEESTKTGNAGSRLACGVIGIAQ
Experimental: To circumvent this problem, a site-directed human SOD mutant was prepared wherein aspartate124 was changed to asparagine (D124N).
as §1, §2, §3

[6] = system: G93A transgenic mice (overexpress human G93A ALS SOD mutant); test: Bathocuproine in ALS SOD transgenic mice: onset and progression of paralysis; type: in vivo, mouse; settings: intraperitoneal in soybean oil, daily 0.51 mg/100 g body weight, from 190 day old G93A mice
Experimental: Neither the overall efficiency nor the kinetics of Cu+1 removal was altered by sulfonic acid substituents on the ring(s) of the parent bathocuproine compound. Thus, the sulfonic acid groups serve mainly to increase water solubility and are not fundamental to copper binding activity. The unsubstituted parent compound, bathocuproine, is very lipid soluble and much more likely to cross the blood-brain barrier. In G93A transgenic mice, bathocuproine was dissolved in soybean oil and injected intraperitoneally at a daily dose of 0.51 mg/100 g body weight. Assuming uniform tissue distribution and fluid fraction equal to 0.7 of the mouse's body weight, this dose should give a cellular concentration of 20 µM or roughly a 4-fold molar excess over SOD protein concentration. […] After onset, paralysis progresses rapidly up the trunk and is ultimately fatal within about 14 days. Bathocuproine injections is initiated in 190 day old mice and the mice are observed for onset and progression of paralysis relative to untreated littermates. […] A group of non-transgenic mice are also injected to control for potential toxicities from bathocuproine itself.

[7] = 0.4 mM H2O2, SOD subunit 0.43 mM, 5 minutes
[8] = 0.5 mM ascorbate, SOD subunit 0.43 mM, 1 hr

t1/2 for reduction by H2 O2 [1, 7]: 21.2 s | t1/2 for reduction by H2 O2 [2, 7]: 30.9 s | t1/2 for reduction by H2 O2 [3, 7]: 24.2 s | t1/2 for reduction by H2 O2 [4, 7]: 30.5 s | t1/2 for reduction by H2 O2 ([5]; 0.4 mM H2O2, SOD subunit 0.43 mM, Kpi pH 7.4, 37 degrees C, 680 nm, 5 minutes): 26.7 s
Structure (SMILES): OO [H2 O2, hydrogen peroxide]

t1/2 for reduction of SOD copper by ascorbate [1, 8]: 1550 s | t1/2 for reduction of ascorbate [2, 8]: 1770 s | t1/2 for reduction of ascorbate [3, 8]: 1240 s | t1/2 for reduction by ascorbate ([4]; 0.5 mM ascorbate, SOD subunit 0.43 mM): 1700 s | rate of ascorbate-mediated reduction relative to wild-type SOD ([5]; 0.5 mM ascorbate, D124N versus wild-type): ~200 fold | t1/2 for reduction of SOD copper by ascorbate ([5]; 0.5 mM ascorbate, SOD subunit 0.43 mM, Kpi pH 7.4, 37 degrees C, stopped-flow spectroscopy): 8.9 s
Structure (SMILES): O=C1O[C@H]([C@@H](O)CO)C(O)=C1O [ascorbate, ascorbic acid]

Structure (SMILES): Cc1cc(-c2ccccc2)c2ccc3c(-c4ccccc4)cc(C)nc3c2n1 [bathocuproine]
onset and progression of paralysis relative to untreated littermates [6]: delay of onset or slowing of progression is shown
